Results reported in PubChem BioAssay AID1963829 (Molecular Pharmacology Branch, DTP, NCI, 2024).

Tested on: 935938-334-R-J1-PDC complex spheroid viability
Experiment: Anticancer human tumor 935938-334-R-J1-PDC patient-derived small intestine adenocarcinoma cell line growth inhibition [POLQ]
Details: for IC50: curve of first compound; for viability, T/C: stronger effect = lower value
Description: Multicellular complex tumor spheroid response to Polymerase (POL) inhibitors (novobiocin, ART-558, RP6685) in combination with a variety of drugs and investigational agents in selected tumor cell lines
The POL inhibitors (novobiocin, ART-558, and RP6685) were evaluated both individually and in combination with standard of care and investigational anticancer small molecules within a complex spheroid model of solid tumors. . Complex spheroids include a stromal component modeled by human endothelial cells (HUVEC) and fibroblasts modeled by human mesenchymal stem cells (MSCs). The concentration ranges selected for each drug and investigational agent were based upon clinically achievable concentrations if the clinical Cmax of the agent was known.
Compounds. The drugs and investigational agents: novobiocin (NSC847541), ART-558 (NSC835418), RP-6685 (NSC848927), peposertib (NSC802822), ceralasertib (NSC780249), elimusertib (NSC800525), camonsertib (NSC841442), AZD-1390 (NSC803789), olaparib (NSC753686), talazoparib (NSC767125), rucaparib (NSC756644), sotorasib (NSC818433), MRTX-1133 (NSC836407), SN-38 (NSC673596), topotecan (NSC609699), epotoside (NSC141540), doxorubicin (NSC123127), gemcitabine (NSC613327), 5-fluorouracil (NSC19893), paclitaxel (NSC125973), vemurafenib (NSC761431), MSA-2 (NSC828583), SN-011 (NSC837082), adavosertib (NSC754352), prexasertib (NSC758257), carboplatin (NSC241240) and oxaliplatin (NSC266046), were obtained from the National Cancer Institute (NCI) Developmental Therapeutics Program Chemical Repository (21). The FDA-approved anticancer drug set is available from the Developmental Therapeutics Program at https://dtp.cancer.gov/organization/dscb/obtaining/. […] The stock solutions were prepared in dimethyl sulfoxide (DMSO, Sigma-Aldrich, St. Louis, MO, cat. D2650), except for the platinum compounds which were prepared in saline (Quality Biological, Gaithersburg, MD, cat. 114-055-101), at 800-fold the tested concentration and stored at -70 degrees C prior to their use. All drugs and investigational agents were tested over a range starting from a high concentration at or near the clinical Cmax and decreasing in half-log increments. If the clinical Cmax for an agent had not been determined, the highest concentration tested was 10 microM, except for SN-38, which was tested at a high concentration of 1 microM.
Cell Culture. All cells were maintained in an incubator at 37 degrees C and 5% CO2 with 95% humidity. The PDC lines were cultured according to standard operating procedures established by the NCI PDMR (https://pdmr.cancer.gov). Table 3 of the manuscript, lists the cell lines along with the number of the three cell types plated to form the mct-spheroids and media for tumor cell growth. After thawing, all PDC lines, except 997537-175-T-J1-PDC and 415267-285-R-J2-PDC, were cultured in Matrigel-coated flasks prepared with a working solution of 1X Ham's F-12 nutrient mix, without supplementation (Thermo Fisher Scientific, cat. 11765054), 100 U/mL penicillin-streptomycin (Thermo Fisher Scientific, cat. 15140122), and 2.5% Matrigel (Corning Inc., Corning, NY, cat. 354248) for the first three passages. The two PDC lines 997537-175-T-J1-PDC and 415267-285-R-J2-PDC were cultured on uncoated flasks. The 857933-349-R-J2-PDC line was cultured in 6C/Colon 1B media containing advanced DMEM/F-12 (Thermo Fisher Scientific, cat. 12634028), 10 mM HEPES (Thermo Fisher Scientific, cat. 15630080), 1X GlutaMAX supplement (Thermo Fisher Scientific, cat. 35050061), 0.1 mg/mL primocin (InvivoGen, San Diego, CA, cat. ant-pm-2), 10% defined fetal bovine serum, heat inactivated (HyClone Laboratories Inc., Logan, UT, cat. SH30070.03HI), 50% L-WRN conditioned media (ATCC, cat. CRL-3276), 1.25 mM N-Acetyl-L-cysteine (Sigma-Aldrich, cat. A9165), 10 mM nicotinamide (Sigma-Aldrich, cat. N0636), 1X B-27 supplement (Thermo Fisher Scientific, cat. 17504044), 1X N-2 supplement (Thermo Fisher Scientific, cat. […]
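Further: spheroids exposed to drugs for seven days before viability read.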
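Wherever viability, T/C is given: 100% = DMSO vehicle control wells.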

C#Cc1c(F)ccc2cc(O)cc(-c3ncc4c(N5CC6CCC(C5)N6)nc(OCC56CCCN5CC(F)C6)nc4c3F)c12 (configuration not stated) + Cc1cccc(N(C)C(=O)C2C(O)CCN2c2nc(C)cc(C(F)(F)F)c2C#N)c1
IC50 (second compound 0.0316 µM): 2410 nM
IC50 (second compound 0.1 µM): 3390 nM
IC50 (second compound 0.316 µM): 1490 nM
IC50 (second compound 1 µM): 1730 nM
IC50 (second compound 3.16 µM): 2020 nM
IC50 (second compound 10 µM): 576 nM
viability, T/C (second compound 0.0316 µM, first compound 0.0316 µM): 89.8%
viability, T/C (second compound 0.0316 µM, first compound 0.1 µM): 97.8%
viability, T/C (second compound 0.0316 µM, first compound 0.316 µM): 65.1%
viability, T/C (second compound 0.0316 µM, first compound 1 µM): 75.2%
viability, T/C (second compound 0.0316 µM, first compound 3.16 µM): 40.2%
viability, T/C (second compound 0.0316 µM, first compound 10 µM): 29.7%
viability, T/C (second compound 0.1 µM, first compound 0.0316 µM): 80.3%
viability, T/C (second compound 0.1 µM, first compound 0.1 µM): 75.2%
viability, T/C (second compound 0.1 µM, first compound 0.316 µM): 62%
viability, T/C (second compound 0.1 µM, first compound 1 µM): 60.9%
viability, T/C (second compound 0.1 µM, first compound 3.16 µM): 53.4%
viability, T/C (second compound 0.1 µM, first compound 10 µM): 39.4%
viability, T/C (second compound 0.316 µM, first compound 0.0316 µM): 97.5%
viability, T/C (second compound 0.316 µM, first compound 0.1 µM): 88.9%
viability, T/C (second compound 0.316 µM, first compound 0.316 µM): 87.6%
viability, T/C (second compound 0.316 µM, first compound 1 µM): 54.6%
viability, T/C (second compound 0.316 µM, first compound 3.16 µM): 41.9%
viability, T/C (second compound 0.316 µM, first compound 10 µM): 33.4%
viability, T/C (second compound 1 µM, first compound 0.0316 µM): 92%
viability, T/C (second compound 1 µM, first compound 0.1 µM): 75%
viability, T/C (second compound 1 µM, first compound 0.316 µM): 64.3%
viability, T/C (second compound 1 µM, first compound 1 µM): 64.8%
viability, T/C (second compound 1 µM, first compound 3.16 µM): 36.5%
viability, T/C (second compound 1 µM, first compound 10 µM): 35.5%
viability, T/C (second compound 3.16 µM, first compound 0.0316 µM): 72.5%
viability, T/C (second compound 3.16 µM, first compound 0.1 µM): 81.1%
viability, T/C (second compound 3.16 µM, first compound 0.316 µM): 54.4%
viability, T/C (second compound 3.16 µM, first compound 1 µM): 70.7%
viability, T/C (second compound 3.16 µM, first compound 3.16 µM): 37.3%
viability, T/C (second compound 3.16 µM, first compound 10 µM): 31.8%
viability, T/C (second compound 10 µM, first compound 0.0316 µM): 85.4%
viability, T/C (second compound 10 µM, first compound 0.1 µM): 73.7%
viability, T/C (second compound 10 µM, first compound 0.316 µM): 61.5%
viability, T/C (second compound 10 µM, first compound 1 µM): 38.6%
viability, T/C (second compound 10 µM, first compound 3.16 µM): 36.6%
viability, T/C (second compound 10 µM, first compound 10 µM): 29.6%
